We go through 9 molecules from US7307098B2, “Indole derivatives and drugs containing the same” (Meiji Dairies Corporation, priority 2002, dated 2007).

The test system of the test is neurospheres which are clusters of neural stem cells. The experiment in a line: Test Example 1: differentiation of neurospheres into neurons (immunofluorescence, confocal microscope). It counts as cell-based. To be noted: Mus musculus, Neural stem cell; test compound 10^−6M, cultivation typically 24 hours, Anti-MAP2 labeling of neurons, control = 100; read-out: Percentage of neuron in relation to control. As for the experimental part: Neural stem cell was produced from […] in accordance with the method of Weiss and Reynolds (1996). More specifically, striate body was extirpated from mouse embryo, and the cells were dispersed in a culture medium containing EGF (20 ng/mL). The cells were cultured under the conditions of 5% CO2 and 37° C. for 5 days. The culture was then centrifuged at 400 rpm in Dissociation Medium (manufactured by Sigma) for 5 minutes, and neurospheres which are cluster of the neural stem cells were obtained. The neurospheres were dispersed in the culture medium, and cultivation was conducted under the same conditions to produce secondary neurospheres.
A sterilized cover glass was placed in the well of 24 well plate, treated overnight with polyornithine solution (30 μg/mL), and washed three times with phosphate buffered saline. Neurospheres were inoculated on the cover glass at 20 to 50 cells/cover glass. The test compound that has been adjusted to the concentration of 10^−6M with ethanol was applied to the cover glass, and the cultivation was continued for a period sufficient for differentiation of the neurospheres (typically 24 hours). The indole derivatives obtained in the Examples were used for the test compounds, and the control cells were cultivated without using such test compound.
Sufficiently differentiated neurospheres were fixed with 4% p-formaldehyde, washed with phosphate buffered saline, and after adding Triton-X100, washed again with phosphate buffered saline. Anti-MAP2 (2a+2b) (Sigma) which is a mouse monoclonal antibody used for labeling neurons and Anti-O4 (Boeringher) which is a mouse monoclonal antibody used for labeling oligodendrocytes, and Anti-GFAP (DAKO) which is a rabbit monoclonal antibody used for labeling astrocytes were added, and the cultivation was continued at room temperature for 1 hour or overnight at 4° C. Anti-mouse IgM antibody and fluorescence indicator were added, and cultivation was continued at room temperature for 1 hour. After washing with phosphate buffered saline, the cover glass was placed on a confocal microscope to observe the differentiation of the neurospheres.
On to `COc1ccc2[nH]cc(CCCCCCCCCCCCCCO)c2c1` [1-1a, n=14, 14-(5-methoxy-1H-indole-3-yl)-tetradecane-1-ol], for which the activity at 1 µM amounted to 143%.
The result for `COc1ccc2[nH]cc(CCCCCCCCCCCCCCCCO)c2c1` [1-1a, n=16, 16-(5-methoxy-1H-indole-3-yl)-hexadecane-1-ol] reads 168%; that for `COc1ccc2[nH]cc(CCCCCCCCCCCCCCCCCCO)c2c1` [1-1a, n=18, 18-(5-methoxy-1H-indole-3-yl)-octadecane-1-ol], 169%; that for `COc1cccc2[nH]cc(CCCCCCCCCCCCCCCCO)c12` [1-1b, n=16, 16-(4-methoxy-1H-indole-3-yl)-hexadecane-1-ol], 133%.
Take `COc1ccc2c(CCCCCCCCCCCCCCCCO)c[nH]c2c1` [1-1c, n=16, 16-(6-methoxy-1H-indole-3-yl)-hexadecane-1-ol]: the activity at 1 µM was 135%.
As to `COc1ccc2[nH]c(CCCCCCCCCCCCCCCCO)cc2c1` [1-2a, n=16, 16-(5-methoxy-1H-indole-2-yl)-hexadecane-1-ol], the activity at 1 µM was 135%.
Consider `COc1cccc2[nH]c(CCCCCCCCCCCCCCO)cc12` [1-2b, n=14, 14-(4-methoxy-1H-indole-2-yl)-tetradecane-1-ol], for which the activity at 1 µM is 147%.
Take `COc1cccc2[nH]c(CCCCCCCCCCCCCCCCO)cc12` [1-2b, n=16, 16-(4-methoxy-1H-indole-2-yl)-hexadecane-1-ol]: the activity at 1 µM turned out to be 184%.
The result for `COc1cccc2cc(CCCCCCCCCCCCCCCCO)[nH]c12` [1-2c, n=16, 16-(7-methoxy-1H-indole-2-yl)-hexadecane-1-ol] reads 128%.
